Measurements as given in patent publication US7601737B2, “Isotopically substituted proton pump inhibitors” (priority 2005, dated 2009).
Read-outs that look alike come from different tables or passages of the source. Each block holds one molecule with its values, some of them ahead of it.

How the values were obtained:
[1] = Metabolisation in liver microsomes (dog); format: in vitro ADME; settings: for Percent of compound metabolized: 10 μM, 90 minutes incubation; for Ratio of percent metabolized, Example/Pantoprazole: 90 minutes
Method: (§1) Pantoprazole or examples 1 or 2 (10 μM each) were incubated with liver microsomes (source: all from GenTest except Mini Pig from TEBU),incubation in 1 mg/ml protein, 100 mM Tris-HCl, pH 7.4, 1 mM NADPH2). Reaction was terminated after 90 minutes by liquid nitrogen, the parent compound was detected by HPLC (10 mM KH2PO4, pH 7.4, acetonitril gradient 20-44%).

[2] = Metabolisation in liver microsomes (mouse); format: in vitro ADME; settings: for Percent of compound metabolized: 10 μM, 90 minutes incubation; for Ratio of percent metabolized, Example/Pantoprazole: 90 minutes
Method: as §1

[3] = Metabolisation in liver microsomes (guinea pig); format: in vitro ADME; settings: Guinee pig liver microsomes; for Percent of compound metabolized: 10 μM, 90 minutes incubation; for Ratio of percent metabolized, Example/Pantoprazole: 90 minutes
Method: as §1

[4] = Metabolisation in liver microsomes (human); format: in vitro ADME; settings: for Percent of compound metabolized: 10 μM, 90 minutes incubation; for Ratio of percent metabolized, Example/Pantoprazole: 90 minutes
Method: as §1

[5] = Metabolisation in liver microsomes (monkey); format: in vitro ADME; settings: for Percent of compound metabolized: 10 μM, 90 minutes incubation; for Ratio of percent metabolized, Example/Pantoprazole: 90 minutes
Method: as §1

[6] = Metabolisation in liver microsomes (rat); format: in vitro ADME; settings: for Percent of compound metabolized: 10 μM, 90 minutes incubation; for Ratio of percent metabolized, Example/Pantoprazole: 90 minutes
Method: as §1

[7] = Metabolisation in liver microsomes (mini pig); format: in vitro ADME; settings: for Percent of compound metabolized: 10 μM, 90 minutes incubation; for Ratio of percent metabolized, Example/Pantoprazole: 90 minutes
Method: as §1

[8] = test system: human cryopreserved hepatocytes; assay: in vitro; settings: for % Σ Clint rac. Omeprazole: hepatocytes
Text: (§2) 5-hydroxy-omeprazole was quantified using LC-MS/MS.

in vitro [9] = settings: human, hepatocytes
Text: as §2

CYP2C19 = biological target: T1, CYP2C19 (Homo sapiens, UniProt P33261); assay: Metabolic clearance in recombinant human cytochrome P450 CYP2C19; format: in vitro ADME; settings: recombinant P450 0.5 nmol/mL, disappearance of parent compound; lower limit of assay resolution 17.6 μl/min/nmol P450
T1 construct: purchased Cypex, Dundee, UK
Method: Incubations were carried out in triplicate.

CYP3A4 = CYP3A4 (Homo sapiens, UniProt P08684); assay: Metabolic clearance in recombinant human cytochrome P450 CYP3A4; settings: recombinant P450 1 nmol/mL, disappearance of parent compound; lower limit of assay resolution 17.6 μl/min/nmol P450
Method: In order to evaluate the properties of the compounds according to the invention the compounds' intrinsic clearances in recombinant human cytochrome P450 (CYP) isoenzymes CYP1A2, CYP2C8, CYP2C19, CYP2D6, CYP3A4, and CYP3A5 were determined.
Incubations were carried out in triplicate. […] The intrinsic clearance was determined based on the rate of disappearance of parent compound. Pantoprazole, omeprazole and the deuterated analogues were determined by HPLC-UV. The lower limit of assay resolution based on experimental variability was 17.6 μl/min/nmol P450.

in vitro [10] = settings: human, hepatocytes; remark: listed apart in the source
Method: (§3) Following the evaluation of the metabolic clearance of the compounds according to the invention via P450 enzymes, the formation kinetics of the main metabolite identified in humans, i.e. M2 (5-(difluoromethoxy)-2-[[(3-methoxy-4-sulfate-2-pyridyl)-methyl]sulfinyl]-1H-benzimidazole) was determined. Because the generation of M2 involves the oxidation of the 4-methoxy-pyridyl group by CYP2C19 and subsequent conjugation with 3′-phosphoadenosine-5′-phosphosulfate (PAPS) by an unidentified sulphotransferase, human cryopreserved hepatocytes were used since both phase I and phase II enzymes are functional in this in vitro system.
(§4) M2 formation rate under these conditions was linear up to 60 min. The M2 formation rate was determined at nine different compound concentrations (0, 0.5, 1.0, 2.5, 5.0, 10.0, 25.0, 50.0 and 100 μMol/L) incubated in duplicate for 60 min at 37° C. M2 was quantified using LC-MS/MS. M2 isolated from human urine was used as an external standard. The concentration to reach the half-maximal formation rate (KM-value) and the maximal formation rate (Vmax) were obtained by non-linear regression analysis using the Michaelis-Menten equation. The intrinsic clearance (Clint) was obtained dividing Vmax over KM.

[11] = test system: human cryopreserved hepatocytes
Method: as §3, §4

Chain of CYP3A4 (P08684 whole entry): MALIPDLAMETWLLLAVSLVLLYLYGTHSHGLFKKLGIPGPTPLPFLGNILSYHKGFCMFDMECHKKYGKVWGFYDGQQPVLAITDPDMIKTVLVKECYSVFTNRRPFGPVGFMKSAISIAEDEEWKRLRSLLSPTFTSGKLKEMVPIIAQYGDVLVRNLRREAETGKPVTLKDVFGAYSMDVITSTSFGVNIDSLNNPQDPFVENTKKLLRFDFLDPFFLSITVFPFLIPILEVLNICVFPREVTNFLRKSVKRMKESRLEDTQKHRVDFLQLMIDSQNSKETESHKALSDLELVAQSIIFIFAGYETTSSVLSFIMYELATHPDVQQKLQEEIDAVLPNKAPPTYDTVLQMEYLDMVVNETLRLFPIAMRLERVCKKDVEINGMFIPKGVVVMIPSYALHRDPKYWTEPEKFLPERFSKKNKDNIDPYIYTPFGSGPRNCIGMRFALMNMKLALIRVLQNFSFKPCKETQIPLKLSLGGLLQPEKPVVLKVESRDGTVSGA
T1 sequence (P33261 whole entry): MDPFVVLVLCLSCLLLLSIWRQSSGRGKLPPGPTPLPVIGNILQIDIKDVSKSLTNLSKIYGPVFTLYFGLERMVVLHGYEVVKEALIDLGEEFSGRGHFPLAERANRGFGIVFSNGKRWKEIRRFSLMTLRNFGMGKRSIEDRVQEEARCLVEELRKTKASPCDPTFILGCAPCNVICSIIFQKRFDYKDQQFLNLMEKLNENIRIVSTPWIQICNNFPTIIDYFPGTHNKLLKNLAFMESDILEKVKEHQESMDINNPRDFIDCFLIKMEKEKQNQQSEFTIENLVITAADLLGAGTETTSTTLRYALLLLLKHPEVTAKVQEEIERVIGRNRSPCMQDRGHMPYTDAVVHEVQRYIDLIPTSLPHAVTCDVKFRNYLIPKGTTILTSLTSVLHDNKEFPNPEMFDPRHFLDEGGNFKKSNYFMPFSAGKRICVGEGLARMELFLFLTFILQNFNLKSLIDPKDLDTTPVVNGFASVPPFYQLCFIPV

Percent of compound metabolized [1]: 10% | Ratio of percent metabolized, Example/Pantoprazole [1]: 0.50 | Percent of compound metabolized [2]: 17% | Ratio of percent metabolized, Example/Pantoprazole [2]: 0.27 | Percent of compound metabolized [3]: 54% | Ratio of percent metabolized, Example/Pantoprazole [3]: 0.69 | Percent of compound metabolized [4]: 15% | Ratio of percent metabolized, Example/Pantoprazole [4]: 0.54 | Percent of compound metabolized [5]: 35% | Ratio of percent metabolized, Example/Pantoprazole [5]: 0.48 | Percent of compound metabolized [6]: 17% | Ratio of percent metabolized, Example/Pantoprazole [6]: 0.28 | Percent of compound metabolized [7]: 19% | Ratio of percent metabolized, Example/Pantoprazole [7]: 0.73
Compound: [2H]C([2H])([2H])Oc1ccnc(C[S@+]([O-])c2nc3cc(OC(F)F)ccc3[nH]2)c1OC [Example 2, (S)(−)-5-Difluoromethoxy-2-[(3-methoxy-4-trideuteriomethoxy-2-pyridinyl)methylsulfinyl]-1H-benzimidazole]

% Σ Clint rac. Omeprazole ([8]; human): 37% | hepatocyte CLint (in vitro [9]): 0.7 µL/min/1e6 cells
Compound: COc1ccc2nc([S@@+]([O-])Cc3ncc(C)c(OC)c3C)[nH]c2c1 [(S)-omeprazole sodium, (S)-5-methoxy-2-[(4-methoxy-3,5-dimethyl-2-pyridinyl)methylsulphinyl]-1H-benzimidazole, reference compound]

5-hydroxy-omeprazole formation rate, reduction compared to non-deuterated omeprazole ([8]; human, 60 min): about 1.5 fold | % Σ Clint rac. Omeprazole ([8]; human): 69% | hepatocyte CLint (in vitro [9]): 1.4 µL/min/1e6 cells
Compound: [2H]C([2H])([2H])Oc1ccc2[nH]c([S+]([O-])Cc3ncc(C)c(OC([2H])([2H])[2H])c3C)nc2c1 (racemic) [Example 47, rac-5-Trideuteriomethoxy-2-[(3,5-dimethyl-4-trideuteriomethoxy-2-pyridinyl)methylsulfinyl]-1H-benzimidazole]

Contribution of CYP2C19 to the oxidative metabolism (CYP2C19): contribute to the oxidative metabolism | % Σ Clint rac. Omeprazole ([8]; human): 100% | hepatocyte CLint (in vitro [9]): 2 µL/min/1e6 cells | Contribution of CYP3A4 to the oxidative metabolism (CYP3A4): contribute to the oxidative metabolism
Compound: COc1ccc2[nH]c([S+]([O-])Cc3ncc(C)c(OC)c3C)nc2c1 (racemic) [rac. Omeprazole, 5-methoxy-2-[(4-methoxy-3,5-dimethyl-2-pyridinyl)methylsulphinyl]-1H-benzimidazole, reference compound]

Reduction in the 5-hydroxy-omeprazole formation rate [8]: not found | % Σ Clint rac. Omeprazole ([8]; human): 107% | hepatocyte CLint (in vitro [9]): 2.1 µL/min/1e6 cells
Compound: [2H]C([2H])([2H])Oc1ccc2[nH]c([S+]([O-])Cc3ncc(C)c(OC)c3C)nc2c1 (racemic) [Example 46, rac-5-Trideuteriomethoxy-2-[(4-methoxy-3,5-dimethyl-2-pyridinyl)methylsulfinyl]-1H-benzimidazole]

Compound: [2H]C([2H])([2H])Oc1ccc2[nH]c([S@@+]([O-])Cc3ncc(C)c(OC([2H])([2H])[2H])c3C)nc2c1.[Na] [Example 49, (S)-5-Trideuteriomethoxy-2-[(3,5-dimethyl-4-trideuteriomethoxy-2-pyridinyl)methylsulfinyl]-1H-benzimidazole sodium salt]
Change of intrinsic clearance (Clint) of 5-hydroxy-omeprazole [8]: did not alter the intrinsic clearance | % Σ Clint rac. Omeprazole ([8]; human): 40% | hepatocyte CLint (in vitro [9]): 0.8 µL/min/1e6 cells

Compound: [2H]C([2H])([2H])Oc1ccnc(C[S@@+]([O-])c2nc3cc(OC(F)F)ccc3[nH]2)c1OC.[Na] [Example 37, (R)-5-Difluoromethoxy-2-[(3-methoxy-4-trideuteriomethoxy-2-pyridinyl)methylsulfinyl]-1H-benzimidazole sodium salt]
hepatocyte CLint (in vitro [10]): 5.5 µL/min/1e6 cells | % Σ Clint (R)-pantoprazole ([11]; Table 3, relative to (R)-pantoprazole): 21%

Compound: [2H]C([2H])([2H])Oc1ccnc(C[S+]([O-])c2nc3cc(OC(F)F)ccc3[nH]2)c1OC (racemic) [Example 1, (R/S)-5-Difluoromethoxy-2-[(3-methoxy-4-trideuteriomethoxy-2-pyridinyl)methylsulfinyl]-1H-benzimidazole]
Percent of compound metabolized [1]: 12% | Ratio of percent metabolized, Example/Pantoprazole [1]: 0.60 | Percent of compound metabolized [2]: 36% | Ratio of percent metabolized, Example/Pantoprazole [2]: 0.58 | Percent of compound metabolized [3]: 59% | Ratio of percent metabolized, Example/Pantoprazole [3]: 0.75 | Percent of compound metabolized [4]: 14% | Ratio of percent metabolized, Example/Pantoprazole [4]: 0.50 | Percent of compound metabolized [5]: 47% | Ratio of percent metabolized, Example/Pantoprazole [5]: 0.64 | Percent of compound metabolized [6]: 35% | Ratio of percent metabolized, Example/Pantoprazole [6]: 0.57 | Percent of compound metabolized [7]: 19% | Ratio of percent metabolized, Example/Pantoprazole [7]: 0.73

Compound: COc1ccnc(C[S+]([O-])c2nc3ccc(OC(F)F)cc3[nH]2)c1OC (stereo not drawn) [H-Pantoprazole, 5-difluoromethoxy-2-[(3,4-dimethoxy-2-pyridinyl)methylsulphinyl]-1H-benzimidazole, reference compound]
Contribution of CYP2C19 to the oxidative metabolism (CYP2C19): contribute to the oxidative metabolism | Percent of compound metabolized [1]: 20% | Percent of compound metabolized [2]: 62% | Percent of compound metabolized [3]: 78% | Percent of compound metabolized [4]: 28% | Contribution of CYP3A4 to the oxidative metabolism (CYP3A4): contribute to the oxidative metabolism | Percent of compound metabolized [5]: 73% | Substrate concentrations at which formation of M2 appeared to be inhibited ([11]; human, 60 min): above 100 μM | Percent of compound metabolized [6]: 61% | Percent of compound metabolized [7]: 26%

5-hydroxy-omeprazole formation rate, reduction compared to non-deuterated omeprazole ([8]; human, 60 min): about 1.5 fold | % Σ Clint rac. Omeprazole ([8]; human): 69% | hepatocyte CLint (in vitro [9]): 1.4 µL/min/1e6 cells
Compound: [2H]C([2H])([2H])Oc1c(C)cnc(C[S+]([O-])c2nc3cc(OC)ccc3[nH]2)c1C (racemic) [Example 48, rac-5-Methoxy-2-[(3,5-dimethyl-4-trideuteriomethoxy-2-pyridinyl)methylsulfinyl]-1H-benzimidazole]
Reduction in the 5-hydroxy-omeprazole formation rate ([8]; human, 60 min): Reduction in the 5-hydroxy-omeprazole formation rate was observed

Compound: O.[2H]C([2H])Oc1ccnc(C[S+]([O-])c2nc3cc(OC(F)F)ccc3[nH]2)c1OC.[Na] (racemic) [Example 24, rac-5-Difluoromethoxy-2-[(3-methoxy-4-dideuteriomethoxy-2-pyridinyl)methylsulfinyl]-1H-benzimidazole sodium salt mono hydrate]
hepatocyte CLint (in vitro [10]): 13.5 µL/min/1e6 cells | % Σ Clint rac. pantoprazole ([11]; Table 2, relative to rac. pantoprazole): 48% | Intrinsic clearance (Clint) ([11]; Table 3, pooled human hepatocytes, M2 formation, Vmax over KM): 13.5 μl/min/10^6 cells | % Σ Clint rac. Pantoprazole ([11]; Table 3, relative to rac. pantoprazole): 48%
